Data taken from patent US5968791A, “Plant lysophosphatidic acid acyltransferases” (Calgene, Inc., priority 1995, dated 1999).

test system: Rapeseed LPAAT; test: LPAAT activity assay, rapeseed P2 membrane preparation; type: biochemical, Brassica napus; conditions: acyl-CoA donor varied, acceptor 12:0-LPA
Experimental: To assay for LPAAT activity, the sample is incubated with lysophosphatidic acid (LPA) and acyl-coenzyme A (acyl-CoA) substrates in buffered solution. The acyl substituents of the two substrates are chosen to correspond with the specificity of the enzyme being measured. For example, to measure activity of an LPAAT having preference for medium-chain substrates, lauroyl-LPA (lauroyl-lysophosphatidic acid) and lauroyl-CoA may be used, to measure activity of an LPAAT preferring longer-chain acyl groups, oleoyl-LPA and oleoyl-CoA may be used, to measure activity of an LPAAT preferring very-long chain substrate, erucyl-LPA and erucyl-CoA may be used, and so on, depending upon the type of LPAAT to be tested. The acyl group of one substrate is radioactively labeled in order to detect the product formed. In the examples which follow the acyl substituent of the acyl-CoA substrate is radiolabeled with ^14 C in the carboxyl group. LPAAT activity results in transfer of this acyl group from the acyl-CoA "donor" substrate to the LPA "acceptor" substrate, converting the latter into the product, phosphatidic acid (PA). LPAAT activity is measured as the amount of radioactive product formed in a given assay time. The PA product is radioactive as a result of the transferred radiolabeled acyl group at the central carbon atom of the molecule, and the quantity of PA formed may be determined by measuring radioactivity of the PA fraction. For this measurement, the PA is first separated from the acyl-CoA substrate by solvent partitioning, or by thin-layer chromatography (TLC).
20 μl of the sample to be assayed for LPAAT activity is mixed with 217.5 μl of an assay ingredient mixture in a 4-ml, screw-cap vial. […] The incubation takes place in a water bath at 30° C., for 20-30 minutes.
To stop the assay, 0.25 ml of 1M KCl in 0.2M H3 PO4 is added to the vial. At this point, 40 μl BSA (bovine serum albumin, fraction V) at 1 mg/ml are added, followed by 0.75 ml of a solution of 67 μg/ml unlabeled PA (acting as a "carrier" to facilitate partitioning) in chloroform/methanol (2:1, v/v). The chain lengths of the PA acyl groups are chosen to correspond to those used in the assay substrates. Upon thorough mixing of these components the radiolabeled PA product of the LPAAT reaction partitions into the organic phase and away from the unreacted acyl-CoA and LPA. The vial is centrifuged briefly at low speed to facilitate the separation of organic (lower) and aqueous (upper) phases. The aqueous phase is then removed and discarded. The total radioactivity extracted into the organic phase is determined by liquid scintillation counting; a 100 μl sample of the organic phase is transferred to a 20 ml scintillation vial and allowed to dry, and scintillation fluid (3-5 ml) is added to the vial. The radioactivity of the sample, after subtraction of the "minus-enzyme" or "minus-LPA" radioactivities, is taken as an approximate indication of the amount of PA formed in the LPAAT-catalyzed reaction and therefore of LPAAT activity.
A more accurate estimation of the LPAAT activity may be obtained by separating the PA product from these contaminants by TLC. The remaining organic phase is applied to a silica TLC plate. […] After the plate has dried, the distribution of radioactivity is visualized and quantitated using an AMBIS radioanalytic imaging system (AMBIS Systems Inc., San Diego, Calif.). From prior application of standard lipid components the Rf of the PA is known. The radioactivity associated with the PA spot is expressed as a percentage of the total radioactivity of the assay sample loaded on the plate. This ratio provides an indication of the proportion of the scintillation counts which represent the PA product, and may be used to correct the counts to obtain the total PA radioactivity formed in the assay.
A P2 membrane homogenate from immature embryos of developing rapeseed (Brassica napus) seeds is prepared essentially as described above, except as noted below.

Structure (SMILES)	LPAAT Activity from Rapeseed
CCCCCCCC(=O)SCCNC(=O)CCNC(=O)[C@H](O)C(C)(C)COP(=O)(O)OP(=O)(O)OC[C@H]1O[C@@H](n2cnc3c(N)ncnc32)[C@H](O)[C@@H]1OP(=O)(O)O [8:0]	2 pmol PA formed/30 min assay
CCCCCCCCCC(=O)SCCNC(=O)CCNC(=O)[C@H](O)C(C)(C)COP(=O)(O)OP(=O)(O)OC[C@H]1O[C@@H](n2cnc3c(N)ncnc32)[C@H](O)[C@@H]1OP(=O)(O)O [10:0]	12 pmol PA formed/30 min assay
CCCCCCCCCCCC(=O)SCCNC(=O)CCNC(=O)[C@H](O)C(C)(C)COP(=O)(O)OP(=O)(O)OC[C@H]1O[C@@H](n2cnc3c(N)ncnc32)[C@H](O)[C@@H]1OP(=O)(O)O [12:0, lauroyl-CoA]	79 pmol PA formed/30 min assay
CCCCCCCCCCCCCC(=O)SCCNC(=O)CCNC(=O)[C@H](O)C(C)(C)COP(=O)(O)OP(=O)(O)OC[C@H]1O[C@@H](n2cnc3c(N)ncnc32)[C@H](O)[C@@H]1OP(=O)(O)O [14:0]	16 pmol PA formed/30 min assay
CCCCCCCCCCCCCCCC(=O)SCCNC(=O)CCNC(=O)[C@H](O)C(C)(C)COP(=O)(O)OP(=O)(O)OC[C@H]1O[C@@H](n2cnc3c(N)ncnc32)[C@H](O)[C@@H]1OP(=O)(O)O [16:0]	27 pmol PA formed/30 min assay
CCCCCCCC/C=C\CCCCCCCC(=O)SCCNC(=O)CCNC(=O)[C@H](O)C(C)(C)COP(=O)(O)OP(=O)(O)OC[C@H]1O[C@@H](n2cnc3c(N)ncnc32)[C@H](O)[C@@H]1OP(=O)(O)O [18:1, oleoyl-CoA]	218 pmol PA formed/30 min assay
